Reference: patent US6376497B1, “Antifungal azole derivatives having a fluorinated vinyl group and process for preparing same” (Korea Research Institute of Chemical Technology, priority 1999, dated 2002)
≈ marks a conversion by molar mass, not a printed value.

Assays:
Test in all cases: In vitro antifungal activity, microbroth dilution MIC
Format in all cases: cell-based
[1] = test system: Aspergillus niger A. 16404; conditions: for Minimal inhibitory concentration (MIC): A. niger A. 16404, RPMI-1640, 35° C., 4 to 48 hours
Method in brief: (§1)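 Broth microdilution adapted from NCCLS M27, in RPMI-1640 with 0.165 M MOPS, pH 7.0. Yeast or mould inoculum at 2×10^3 CFU/ml was mixed 1:1 with DMSO-derived compound solutions (200 to 0.10 μg/ml before mixing) and incubated at 35 °C for 4 to 48 h. MIC was the concentration showing no growth.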

[2] = test system: Trichophyton mentagrophytes A. 9129; conditions: for Minimal inhibitory concentration (MIC): T. mentagrophytes A. 9129, RPMI-1640, 35° C., 4 to 48 hours
Method in brief: as §1

[3] = test system: Cryptococcus neoformans IFM. 40092; conditions: for Minimal inhibitory concentration (MIC): Cry. neoformans IFM. 40092, RPMI-1640, 35° C., 4 to 48 hours
Method in brief: as §1

[4] = test system: Candida pseudotropicalis K. 11658; conditions: 4 to 48 hours; for Minimal inhibitory concentration (MIC): C. pseudotropicalis K. 11658, RPMI-1640, 35° C.
Method in brief: as §1

[5] = test system: Cryptococcus neoformans A. 34144; conditions: for Minimal inhibitory concentration (MIC): Cry. neoformans A. 34144, RPMI-1640, 35° C., 4 to 48 hours
Method in brief: as §1

[6] = test system: Candida parapsitosis A. 7330; conditions: 4 to 48 hours; for Minimal inhibitory concentration (MIC): C. parapsitosis A. 7330, RPMI-1640, 35° C.
Method in brief: as §1

[7] = test system: Candida albicans IFO. 1385; conditions: 4 to 48 hours; for Minimal inhibitory concentration (MIC): C. albicans IFO. 1385, RPMI-1640, 35° C.
Method in brief: as §1

[8] = test system: Aspergillus furnigatus B. 19119; conditions: for Minimal inhibitory concentration (MIC): A furnigatus B. 19119, RPMI-1640, 35° C., 4 to 48 hours
Method in brief: as §1

[9] = test system: Trichophyton mentagrophytes B. 32663; conditions: for Minimal inhibitory concentration (MIC): T. mentagrophytes B. 32663, RPMI-1640, 35° C., 4 to 48 hours
Method in brief: as §1

[10] = test system: Torulopsis glabrata B. 16205; conditions: 4 to 48 hours; for Minimal inhibitory concentration (MIC): T. glabrata B. 16205, RPMI-1640, 35° C.
Method in brief: as §1

[11] = test system: Candida albicans A. 10231; conditions: 4 to 48 hours; for Minimal inhibitory concentration (MIC): C. albicans A. 10231, RPMI-1640, 35° C.
Method in brief: as §1

[12] = test system: Cryptococcus neoformans B. 42419; conditions: 4 to 48 hours; for Minimal inhibitory concentration (MIC): Cry. neoformans B. 42419, RPMI-1640, 35° C.
Method in brief: as §1

[13] = test system: Candida albicans C1-2; conditions: 4 to 48 hours; for Minimal inhibitory concentration (MIC): C. albicans C1-2, RPMI-1640, 35° C.
Method in brief: as §1

[14] = test system: Candida krusei K. 11655; conditions: 4 to 48 hours; for Minimal inhibitory concentration (MIC): C. krusei K. 11655, RPMI-1640, 35° C.
Method in brief: as §1

[15] = test system: Candida tropicalis A. 13803; conditions: 4 to 48 hours; for Minimal inhibitory concentration (MIC): C. tropicalis A. 13803, RPMI-1640, 35° C.
Method in brief: as §1

[16] = RPMI-1640, 35° C., no growth observed

| Compound | Minimal inhibitory concentration (MIC) [1] | Minimal inhibitory concentration (MIC) [2] | Minimal inhibitory concentration (MIC) [3] | Minimal inhibitory concentration (MIC) [4] | Minimal inhibitory concentration (MIC) [5] | Minimal inhibitory concentration (MIC) [6] | Minimal inhibitory concentration (MIC) [7] | Minimal inhibitory concentration (MIC) [8] | Minimal inhibitory concentration (MIC) [9] | Minimal inhibitory concentration (MIC) [10] | Minimal inhibitory concentration (MIC) [11] | Minimal inhibitory concentration (MIC) [12] | Minimal inhibitory concentration (MIC) [13] | Minimal inhibitory concentration (MIC) [14] | Minimal inhibitory concentration (MIC) [15] | also measured |
| --- | --- | --- | --- | --- | --- | --- | --- | --- | --- | --- | --- | --- | --- | --- | --- | --- |
| FC(=C(c1cc(Cl)cc(Cl)c1)C(F)(F)F)N1CCN(c2ccc(OCC3COC(Cn4ccnc4)(c4ccc(F)cc4F)O3)cc2)CC1 (mixture of isomers) [Ex. 150] |  |  |  |  |  |  |  |  |  |  |  |  |  |  |  | Minimal inhibitory concentration(MIC), A. niger A. 16404 [1, 16]: 100 µg/mL; Minimal inhibitory concentration(MIC), T. mentagrophytes A. 9129 [2, 16]: 3.13 µg/mL; Minimal inhibitory concentration(MIC), Cry. neoformans IFM. 40092 [3, 16]: ≦0.10 μg/ml; Minimal inhibitory concentration(MIC), C. pseudotropicalis K. 11658 [4, 16]: 0.78 µg/mL; Minimal inhibitory concentration(MIC), Cry. neoformans A. 34144 [5, 16]: 1.56 µg/mL; Minimal inhibitory concentration(MIC), C. parapsitosis A. 7330 [6, 16]: 1.56 µg/mL; Minimal inhibitory concentration(MIC), C. albicans IFO. 1385 [7, 16]: 0.39 µg/mL; Minimal inhibitory concentration(MIC), A furnigatus B. 19119 [8, 16]: 12.5 µg/mL; Minimal inhibitory concentration(MIC), T. mentagrophytes B. 32663 [9, 16]: ≦0.10 μg/ml; Minimal inhibitory concentration(MIC), T. glabrata B. 16205 [10, 16]: 50.0 µg/mL; Minimal inhibitory concentration(MIC), C. albicans A. 10231 [11, 16]: >100 µg/mL; Minimal inhibitory concentration(MIC), Cry. neoformans B. 42419 [12, 16]: 0.39 µg/mL; Minimal inhibitory concentration(MIC), C. albicans C1-2 [13, 16]: >100 µg/mL; Minimal inhibitory concentration(MIC), C. krusei K. 11655 [14, 16]: 0.78 µg/mL; Minimal inhibitory concentration(MIC), C. tropicalis A. 13803 [15, 16]: >100 µg/mL |
| FC(=Cc1ccccc1)OC[C@H]1CO[C@](Cn2ccnc2)(c2ccc(Cl)cc2Cl)O1 (relative stereo) [Example 1, (E&Z) 1-[cis-2-(2,4-dichlorophenyl)-2-(1H-1-imidazolylmethyl)-1,3-dioxolan-4-ylmethoxy]-1-fluoro-2-phenyl-1-ethene] | 1.56 µg/mL (≈ 3.47 µM) | ≦0.10 μg/ml | 0.20 µg/mL (≈ 0.445 µM) | 6.25 µg/mL (≈ 13.9 µM) | 0.39 µg/mL (≈ 0.868 µM) | 6.25 µg/mL (≈ 13.9 µM) | 3.13 µg/mL (≈ 6.97 µM) | 1.56 µg/mL (≈ 3.47 µM) | 0.20 µg/mL (≈ 0.445 µM) | 25.0 µg/mL (≈ 55.6 µM) | 25.0 µg/mL (≈ 55.6 µM) | 0.39 µg/mL (≈ 0.868 µM) | 25.0 µg/mL (≈ 55.6 µM) | 6.25 µg/mL (≈ 13.9 µM) | 50.0 µg/mL (≈ 111 µM) |  |
| Cc1cccc(C=C(F)OCC2COC(Cn3ccnc3)(c3ccc(Cl)cc3Cl)O2)c1 (stereo not drawn) [Ex. 2] | 3.13 µg/mL (≈ 6.76 µM) | 1.56 µg/mL (≈ 3.37 µM) | 1.56 µg/mL (≈ 3.37 µM) | 12.5 µg/mL (≈ 27 µM) | 3.13 µg/mL (≈ 6.76 µM) | 12.5 µg/mL (≈ 27 µM) | 0.78 µg/mL (≈ 1.68 µM) | 3.13 µg/mL (≈ 6.76 µM) | 1.56 µg/mL (≈ 3.37 µM) | 6.25 µg/mL (≈ 13.5 µM) | 6.25 µg/mL (≈ 13.5 µM) | 3.13 µg/mL (≈ 6.76 µM) | 6.25 µg/mL (≈ 13.5 µM) | 12.5 µg/mL (≈ 27 µM) | 25.0 µg/mL (≈ 54 µM) |  |
